What follows are compounds tested against T1, α7 nAChR (Rattus norvegicus, UniProt Q05941) (assay: [3H]-MLA competition binding assay in rat brain membranes). Settings: inhibition of [3H]-MLA binding, rat brain homogenate (whole brain minus cerebellum), Cheng-Prusoff.
T1 construct: brains (whole brain minus cerebellum) are dissected quickly, weighed and homogenized; from tissue; host or cells: rat brain (whole brain minus cerebellum) membranes
Procedure: Materials and Methods for Identifying Binding Constants:
Membrane Preparation. Male Sprague-Dawley rats (300-350 g) are sacrificed by decapitation and the brains (whole brain minus cerebellum) are dissected quickly, weighed and homogenized in 9 volumes/g wet weight of ice-cold 0.32 M sucrose using a rotating pestle on setting 50 (10 up and down strokes). The homogenate is centrifuged at 1,000× g for 10 minutes at 4° C. The supernatant is collected and centrifuged at 20,000× g for 20 minutes at 4° C. The resulting pellet is resuspended to a protein concentration of 1-8 mg/mL. Aliquots of 5 mL homogenate are frozen at −80° C. until needed for the assay. On the day of the assay, aliquots are thawed at room temperature and diluted with Kreb's—20 mM Hepes buffer pH 7.0 (at room temperature) containing 4.16 mM NaHCO3, 0.44 mM KH2PO4, 127 MM NaCl, 5.36 mM KCl, 1.26 mM CaCl2, and 0.98 mM MgCl2, so that 25-150 μg protein are added per test tube. Protein concentration is determined by the Bradford method (Bradford, M. M., Anal. Biochem., 72, 248-254, 1976) using bovine serum albumin as the standard.
Binding Assay. For saturation studies, 0.4 mL homogenate are added to test tubes containing buffer and various concentrations of radioligand, and are incubated in a final volume of 0.5 mL for 1 hour at 25° C. Nonspecific binding was determined in tissues incubated in parallel in the presence of 1 μM MLA, added before the radioligand. In competition studies, drugs are added in increasing concentrations to the test tubes before addition of approximately 3.0 to 4.0 nM [^3H]-MLA. The incubations are terminated by rapid vacuum filtration through Whatman GF/B glass filter paper mounted on a 48 well Brandel cell harvester. Filters are pre-soaked in 50 mM Tris HCl pH 7.0-0.05% polyethylenimine. The filters are rapidly washed two times with 5 mL aliquots of cold 0.9% saline and then counted for radioactivity by liquid scintillation spectrometry.
Data Analysis. In competition binding studies, the inhibition constant (Ki) was calculated from the concentration dependent inhibition of [^3H]-MLA binding obtained from non-linear regression fitting program according to the Cheng-Prusoff equation (Cheng, Y. C. and Prussoff, W. H., Biochem. Pharmacol., 22, p. 3099-3108, 1973). Hill coefficients were obtained using non-linear regression (GraphPad Prism sigmoidal dose-response with variable slope).

T1 sequence (Q05941 23-502): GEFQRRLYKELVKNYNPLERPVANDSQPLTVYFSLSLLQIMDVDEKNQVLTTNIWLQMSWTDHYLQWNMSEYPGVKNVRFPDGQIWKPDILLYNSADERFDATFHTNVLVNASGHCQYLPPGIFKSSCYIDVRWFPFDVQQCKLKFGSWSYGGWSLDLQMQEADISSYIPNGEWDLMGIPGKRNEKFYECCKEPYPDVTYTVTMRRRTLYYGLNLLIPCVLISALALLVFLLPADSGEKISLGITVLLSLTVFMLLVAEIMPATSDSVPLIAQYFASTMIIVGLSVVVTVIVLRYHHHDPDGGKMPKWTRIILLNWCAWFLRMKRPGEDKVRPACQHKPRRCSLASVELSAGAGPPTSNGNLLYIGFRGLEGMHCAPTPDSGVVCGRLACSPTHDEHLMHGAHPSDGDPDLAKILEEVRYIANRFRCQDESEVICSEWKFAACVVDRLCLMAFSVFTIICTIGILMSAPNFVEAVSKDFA

Structure (SMILES) | Ki
O=C(N[C@@H]1C[C@H]2CCN(C2)C1)c1ccc(Cl)cc1 [Example 3 (3R, 5R), (3R,5R)-N-(1-azabicyclo[3.2.1]oct-3-yl)-4-chlorobenzamide 4-methylbenzenesulfonate] | 18 nM
C[C@H]1[C@H](NC(=O)c2ccc(Cl)cc2)C2CCN1CC2 [Example 1(b)(i), 4-chloro-N-[(2S,3R)-2-methyl-1-azabicyclo[2.2.2]oct-3-yl]benzamide 4-methylbenzenesulfonate] | 65 to 140 nM
O=C(N[C@H]1CN2CCC1CC2)c1ccc(Cl)cc1 [Example 1(a)] | 26 nM
O=C(N[C@H]1C[C@@H]2CCN(C2)C1)c1ccc(Cl)cc1 [Example 3 (3S, 5S), (3S,5S)-N-(1-azabicyclo[3.2.1]oct-3-yl)-4-chlorobenzamide 4-methylbenzenesulfonate] | > 1000 nM
O=C(NC1CC2CCN(C2)C1)c1ccc(Cl)cc1 (racemic) [Example 3 (racemic), Exo-N-[1-azabicyclo[3.2.1]oct-3-yl]-4-chlorobenzamide 4-methylbenzenesulfonate] | 115 nM

Reference: US6869946B2, “Substituted azabicyclic moieties for the treatment of disease” (Pfizer Inc, priority 2001, dated 2005)
